From patent US8188287B2, “Piperidyl acrylamide antagonists of CCR2” (Janssen Pharmaceutica N.V., priority 2008, dated 2012)

target: T1, CCR2 (Homo sapiens, UniProt P41597); assay: MCP-1 Receptor Binding Assay in THP-1 Cells; settings: 125I labeled MCP-1 0.5 nM, 2 hours at 30° C., read-out: Inhibition of MCP-1 Binding IC50
T1 construct: host or cells: THP-1 (human monocytic cell line)
Experimental: MCP-1 Receptor Binding Assay in THP-1 Cells
Human monocytic cell line THP-1 cells were obtained from American Type Culture Collection (Manassas, Va., USA). The THP-1 cells were grown in RPMI-1640 (RPMI: Roswell Park Memorial Institute Medium-cell culture growth media) supplemented with 10% fetal bovine serum in a humidified 5% CO2 atmosphere at 37° C. The cell density was maintained […].
THP-1 (cells were incubated with 0.5 nM ^125I labeled MCP-1 (Perkin-Elmer Life Sciences, Inc. Boston, Mass.) in the presence of varying concentrations of either unlabeled MCP-1 (R & D Systems, Minneapolis, Minn.) or test compound for 2 hours at 30° C. in a 96 well plate. Cells were then harvested onto a filter plate, dried, and 20 μL of Microscint 20 was added to each well. Plates were counted in a TopCount NXT, Microplate Scintillation & Luminescence Counter (Perkin-Elmer Life Sciences, Inc. Boston, Mass.). Blank values (buffer only) were subtracted from all values and drug treated values were compared to vehicle treated values. 1 μM cold MCP-1 was used for nonspecific binding.
Table 1 lists IC50 values for inhibition of MCP-1 binding to CCR2 obtained for test compounds of the invention. Where an IC50 value was not obtained for a particular compound, the percent inhibition is provided at a test concentration of 25 μM. TABLE 1 Inhibition of MCP-1 Binding IC50 (μM)

T1 sequence (P41597 whole entry): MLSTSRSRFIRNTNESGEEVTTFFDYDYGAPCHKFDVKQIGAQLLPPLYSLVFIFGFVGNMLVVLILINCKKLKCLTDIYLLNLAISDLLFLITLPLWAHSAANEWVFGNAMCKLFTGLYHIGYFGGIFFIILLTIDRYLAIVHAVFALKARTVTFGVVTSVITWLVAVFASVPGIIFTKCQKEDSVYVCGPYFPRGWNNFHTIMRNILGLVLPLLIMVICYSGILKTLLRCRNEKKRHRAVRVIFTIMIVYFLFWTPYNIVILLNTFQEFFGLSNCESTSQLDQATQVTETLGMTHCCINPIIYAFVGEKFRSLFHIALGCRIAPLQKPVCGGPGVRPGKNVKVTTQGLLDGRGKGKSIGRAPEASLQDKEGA

Row | IC50 | Structure (SMILES)
1 | 0.64 µM | O=C(O)C(NN1CCC(c2c[nH]c3ccccc23)CC1)C1CCN(C(=O)/C=C/c2cc(F)c(F)c(F)c2)CC1 (racemic) [Compound 5d, [4-(1H-Indol-3-yl)-piperidin-1-ylamino]-{1-[3-(3,4,5-trifluoro-phenyl)-acryloyl]-piperidin-4-yl}-acetic acid]
2 | 1.6 µM | O=C(/C=C/c1cc(F)c(F)c(F)c1)N1CCC(NN2CCC(c3c[nH]c4ccccc34)CC2)CC1 [Compound 3a, 1-{4-[4-(1H-Indol-3-yl)-piperidin-1-ylamino]-piperidin-1-yl}-3-(3,4,5-trifluoro-phenyl)-propenone]
3 | 1.4 µM | O=C(/C=C/c1cc(F)c(F)c(F)c1)N1CCC(N(CC(O)CO)N2CCC(c3c[nH]c4ccccc34)CC2)CC1 (stereo not shown) [Compound 4d, 1-(4-{(2,3-Dihydroxy-propyl)-[4-(1H-indol-3-yl)-piperidin-1-yl]-amino}-piperidin-1-yl)-3-(3,4,5-trifluoro-phenyl)-propenone]

same assay, conditions: test concentration of 25 μM, 125I labeled MCP-1 0.5 nM

Row | Inhibition of MCP-1 Binding Inh (%) | Structure (SMILES)
4 | 20% | O=C(/C=C/c1cc(F)c(F)c(F)c1)N1CCC(N(Cc2ncc[nH]2)N2CCC(c3c[nH]c4ccccc34)CC2)CC1 [Compound 4e, 1-(4-{(1H-Imidazol-2-ylmethyl)-[4-(1H-indol-3-yl)-piperidin-1-yl]-amino}-piperdin-1-yl)-3-(3,4,5-trifluoro-phenyl)-propenone]
5 | 0% | CC(C)CN(C1CCN(C(=O)/C=C/c2cc(F)c(F)c(F)c2)CC1)N1CCC(c2c[nH]c3ccccc23)CC1 [Compound 4c, 1-(4-{[4-(1H-Indol-3-yl)-piperidin-1-yl]-isobutyl-amino}-piperidin-1-yl)-3-(3,4,5-trifluoro-phenyl)-propenone]
6 | 59% | CN(C1CCN(C(=O)/C=C/c2cc(F)c(F)c(F)c2)CC1)N1CCC(c2c[nH]c3ccccc23)CC1 [Compound 4a, 1-(4-{[4-(1H-Indol-3-yl)-piperidin-1-yl]-methyl-amino}-piperidin-1-yl)-3-(3,4,5-trifluoro-phenyl)-propenone]
7 | 34% | CCN(C1CCN(C(=O)/C=C/c2cc(F)c(F)c(F)c2)CC1)N1CCC(c2c[nH]c3ccccc23)CC1 [Compound 4b, 1-(4-{Ethyl-[4-(1H-indol-3-yl)-piperidin-1-yl]-amino}-piperidin-1-yl)-3-(3,4,5-trifluoro-phenyl)-propenone]
